3 compounds from patent publication US20070004735A1, “Method for inhibiting the replication of herpes viruses” (priority 2003, published 2007) can be followed below.

The structures appear in SMILES notation.

Assay [1] relates to HCMV AD169 clone with mutation in UL86 R435C. Nature of the assay: Susceptibility (IC50) of resistant HCMV AD169 clone R435C. The settings on record: Human betaherpesvirus 5, read-out: IC 50, R435C. It counts as cell-based, Human cytomegalovirus. The protocol:
(§1) The test compounds are employed as 50 millimolar (mM) solutions in dimethyl sulfoxide (DMSO). Ganciclovir®, Foscarnet® and Cidofovir® are used as reference compounds. After addition of in each case 2 μl of the 50, 5, 0.5 and 0.05 mM DMSO stock solutions to 98 μl portions of cell culture medium in row 2 A-H for duplicate determinations, 1:2 dilutions are carried out with 50 μl portions of medium up to row 11 of the 96-well plate. The wells in rows 1 and 12 each contain 50 μl of medium. 150 μl of a suspension of 1×10^4 cells (human prepuce fibroblasts [NHDF]) are then pipetted into each of the wells (row 1=cell control) and, in rows 2-12, a mixture of HCMV-infected and uninfected NHDF cells (M.O.I.=0.001-0.002), i.e. 1-2 infected cells per 1000 uninfected cells. Row 12 (without substance) serves as virus control. The final test concentrations are 250-0.0005 μM. The plates are incubated at 37° C./5% CO2 for 6 days, i.e. until all the cells are infected in the virus controls (100% cytopathogenic effect [CPE]). The wells are then fixed and stained by adding a mixture of formalin and Giemsa's dye (30 minutes), washed with double-distilled water and dried in a drying oven at 50° C. The plates are then assessed visually using an overhead microscope (plaque multiplier from Technomara).
(§2) For this purpose, NHDF cells are seeded in tissue culture vessels. 5×10^3 cells per well are seeded in 96-well plates and infected with cell-free HCMV AD169 with an moi of 0.03. The infections are cultivated under substance pressure which corresponds to 10 times the IC50 of the substance. Preferably, 30-100 96-well plates inoculated as described are made up. […] Finally, viral stocks are produced as described above and frozen. Serial ten-fold dilution of the virus-infected cells or of the cell culture supernatant of the virus-infected cells is followed by determination of the titer on 24-well plates of confluent NHDF cells after vital staining with neutral red. Finally, the susceptibility to various substances (IC50 determination) is determined as described above.
(§3) The HCMVAD169 mutants selected as described above are grown in vitro on human embryonic prepuce fibroblasts (NHDF cells) under substance pressure (10×IC50 HCMVAD169). After infection of the NHDF cells with a multiplicity of infection (M.O.I) of 0.01, the virus-infected cells are harvested 5-10 days later, and the total DNA is isolated from these cells with the aid of established standard methods (e.g. phenol extraction and ethanol precipitation). Qiagen Sequencing Services (Qiagen, Hilden) determined, after amplification of the viral UL86 gene by PCR, the DNA sequence, which was then transcribed into protein sequence. Compared with the initial strain HCMV AD169, the differences shown in table 2 were detectable in the protein sequence of the major capsid protein (UL86) in the resistant viruses. The IC50 values [μM] of various substances on these mutants compared with the initial strain are likewise indicated. (n.d.=not measured). […] Depending on the nature of the substance, certain mutations lead to various extents of resistance.

Assay [2] has as its system HCMV AD169 clone with mutation in UL86 D441N. Nature of the assay: Susceptibility (IC50) of resistant HCMV AD169 clone D441N. As to conditions: Human betaherpesvirus 5, read-out: IC 50, D441N. It counts as cell-based, Human cytomegalovirus. The protocol: as §1, §2, §3
Assay [3] concerns HCMV AD169 clone with mutation in UL86 D563N. In words: Susceptibility (IC50) of resistant HCMV AD169 clone D563N. Type of assay: cell-based, Human cytomegalovirus. The settings on record: Human betaherpesvirus 5, read-out: IC 50, D563N. The protocol: as §1, §2, §3
Assay [4] relates to HCMV AD169 clone with mutation in UL86 V601M. In words: Susceptibility (IC50) of resistant HCMV AD169 clone V601M. Type of assay: cell-based, Human cytomegalovirus. The settings on record: Human betaherpesvirus 5, read-out: IC 50, V601M. The protocol:
as §1, §2, §3

In assay [5] the test system is HCMV AD169 clone with mutation in UL86 A689T. Nature of the assay: Susceptibility (IC50) of resistant HCMV AD169 clone A689T. Type of assay: cell-based, Human cytomegalovirus. As to conditions: Human betaherpesvirus 5, read-out: IC 50, A689T. How it is done:
as §1, §2, §3

The subject of assay [6] is HCMV AD169 clone with mutation in UL86 K1338N. Nature of the assay: Susceptibility (IC50) of resistant HCMV AD169 clone K1338N. It counts as cell-based, Human cytomegalovirus. As to conditions: Human betaherpesvirus 5, read-out: IC 50, K1338N. The protocol:
as §1, §2, §3

The subject of the next assay is HCMV Davis or HCMV AD169. Nature of the assay: HCMV Xenograft Gelfoam model. It counts as in vivo, immunodeficient mice. As to conditions: oral treatment over 8 days, infectious virus particles vs placebo-treated control; approximate results. The source says: 3-4-week old female immunodeficient mice (16-18 g), Fox Chase SCID or Fox Chase SCID-NOD or SCID beige, are purchased from commercial breeders (Bomholtgaard, Jackson, USA). The animals are housed under sterile conditions (including bedding and feed) in isolators.
Collagen sponges 1×1×1 cm in size (Gelfoam®; from Peasel & Lorey, order No. 407534; K. T. Chong et al., Abstracts of 39th Interscience Conference on Antimicrobial Agents and Chemotherapy, 1999, p. 439) are initially wetted with phosphate-buffered saline (PBS), the trapped air bubbles are removed by degassing, and then stored in MEM+10% FCS. 1×10^6 virus-infected NHDF cells (infection with HCMV Davis or HCMV AD169 M.O.I.=0.03) are detached 3 hours after infection and added in a drop of 20 μl of MEM, 10% FCS, to a moist sponge. 12-13 hours later, the infected sponges are incubated with 25 μl of PBS/0.1% BSA/1 mM DTT with 5 ng/μl basic fibroblast growth factor (bFGF). For the transplantation, the immunodeficient mice are anesthetized with Avertin or a ketamine/xylazine/azepromazine mixture, the fur on the back is removed using a shaver, the epidermis is opened 1-2 cm, unstressed and the moist sponges are transplanted under the dorsal skin. The surgical wound is closed with tissue glue. 6 hours after the transplantation, the mice are treated for the first time (one treatment is given on the day of the operation). On subsequent days, oral treatment with the substance is carried out three times a day (7.00 h and 14.00 h and 19.00 h), twice a day (8 h and 18 h) or once a day (14 h) over a period of 8 days. The daily dose is for example 3 or 10 or 30 or 60 or 100 mg/kg of body weight, the volume administered is 10 ml/kg of body weight. The substances are formulated in the form of a 0.5% strength Tylose suspension with 2% DMSO or a 0.5% strength Tylose suspension. […] The number of infectious virus particles after the substance treatment compared with the placebo-treated control group is determined.

Take `CC1(C)CC(=O)NN=C1c1cccc(NC(=O)Nc2ccc(F)cc2F)c1` [Example 1, N-(2,4-Difluorophenyl)-N′-[3-(4,4-dimethyl-6-oxo-1,4,5,6-tetrahydro-3-pyridazinyl)phenyl]urea]: the IC50 in assay [1] is 1500 nM; in assay [2] it was 20000 nM; in assay [3], greater than 125000 nM; in assay [4], 20000 nM; in assay [5], 6000 nM; in assay [6] it was greater than 125000 nM. Moreover, the “ED50, antiviral activity in vivo” value in the assay on HCMV Davis or HCMV AD169 is reported as 50 mg/kg/day.

Take `CCCCC(=O)Nc1ccc(NC(=O)Nc2ccc(F)c(Cl)c2)cc1` [Example 4, N-[4-({[(3-Chloro-4-fluorophenyl)amino]carbonyl}amino)phenyl]pentanamide]: the IC50 in assay [1] is greater than 60000 nM; in assay [2], 500 nM; in assay [3], 1000 nM; in assay [4], 500 nM; in assay [5], 500 nM; in assay [6], greater than 60000 nM. Further, the “ED50, antiviral activity in vivo” value in the assay on HCMV Davis or HCMV AD169 came to 70 mg/kg/day.

For `CC1(C)CC(=O)NN=C1c1cc(NC(=O)Nc2cc(F)ccc2F)ccc1O` [Example 2, N-(2,5-Difluorophenyl)-N′-[3-(4,4-dimethyl-6-oxo-1,4,5,6-tetrahydro-3-pyridazinyl)-4-hydroxyphenyl]urea], the IC50 in assay [1] was 500 nM; in assay [2] it was 1500 nM; in assay [3], 6000 nM; in assay [4], 3000 nM; in assay [5], 1000 nM; in assay [6], greater than 125000 nM. The “ED50, antiviral activity in vivo” value with HCMV Davis or HCMV AD169 is 45 mg/kg/day.
